Experimental data reported in patent US8962664B2, “Selective glycosidase inhibitors and uses thereof” (Simon Fraser University, priority 2006, dated 2015).
Entries after “also recorded” stand apart in the source; their conditions may differ.

Tests used:
[1] = test system: tau phosphorylation levels in brain tissue; assay: Decrease of rat brain tau phosphorylation levels (NAG-Bt); assay type: in vivo, Sprague-Dawley rats; conditions: rats, 100 mg/kg/day in food for five days then 50 mg/kg IV, Western blot
Experimental: The effect of oral administration of NAG-Bt on tau phosphorylation levels in brain tissue in Sprague-Dawley rats was measured. All animals were obtained from Charles-River as 5-week old healthy male Sprague-Dawley rats. Animals were given one week to acclimatize and at six weeks of age the appropriate treatment was initiated. Four animals were fed food containing 100 mg/kg/day of NAG-Bt for five days. Four additional animals fed with food containing no inhibitor were used as controls. At the end of five days, the animals were fasted for 11 hours, then the four animals that received NAG-Bt in food were each given an intravenous tail vein injection of 50 mg/kg NAG-Bt. All animals were fasted for a further 5 hours, then they were sacrificed and brains were removed, stored, and processed as described in Example 29.
Western blotting of the samples thus obtained was carried out using the α-O-GlcNAc antibody (CTD110.6; Covance) and a-Actin antibody as described previously.^106 For Tau blotting, pS199, pS214, pS217, pS262, pS396, and pS422 (Biosource), Tau-5 (Lab Vision; a non-PTM dependent tau antibody), Tau-1 (Chemicon; selective for nonphosphorylated Ser195, Ser198, Ser199, and Ser202), and pS404 (Sigma) antibodies were used according to the manufacturer's protocols. Equal amounts of homogenized brain tissue from an animal treated with and without NAG-Bt were separated by SDS-PAGE followed by probing with each of the primary antibodies and an appropriate secondary antibody (either an anti-mouse or anti-rabbit IgG-HRP conjugate, as appropriate). The resulting Western blots are shown in FIGS. 2A-I, and reveal decreases of brain tau phosphorylation at multiple sites following treatment with NAG-Bt; lanes labeled “+” indicate samples from animals receiving NAG-Bt, while lanes labeled “-” indicate samples from animals receiving vehicle alone.

[2] = test system: tau phosphorylation levels in brain tissue; assay: Decrease of rat brain tau phosphorylation levels (oral NAG-AE); assay type: in vivo, Sprague-Dawley rats; conditions: rats, 200 mg/kg/day in drinking water for one day
Experimental: The effect of oral administration of (3aR,5R,6S,7R,7aR)-2-(ethylamino)-5-(hydroxymethyl)-5,6,7,7a-tetrahydro-3aH-pyrano[3,2-d]thiazole-6,7-diol (Compound 25, NAG-AE) on tau phosphorylation levels in brain tissue in Sprague-Dawley rats was measured. All animals were obtained from Charles-River as 5-week old healthy male Sprague-Dawley rats. Animals were given one week to acclimatize and at six weeks of age the appropriate treatment was initiated. Three animals received 200 mg/kg/day of NAG-AE in their drinking water for one day. Three additional animals received drinking water containing no NAG-AE and were used as controls. Immediately following the dosing period, all animals were sacrificed and brains were removed, stored, and processed as described in Example 29.
Western Blots. Samples were separated through 10% sodium dodecyl sulfate polyacrylamide gels (SDS-PAGE) and then transferred to nitrocellulose (Bio-Rad) membranes. Membranes were then blocked for 1 h at room temperature (RT) with 1% bovine serum albumin (BSA) in PBS containing 0.1% Tween-20 (Sigma) (PBS-T) and then subsequently probed with appropriate primary antibody delivered in 1% BSA in PBS-T for either 1 h at RT or overnight at 4° C. Membranes were then extensively washed with PBS-T, blocked again for 30 min with 1% BSA in PBS-T at RT and then probed with the appropriate HRP conjugated secondary antibody for 1 h at RT delivered in 1% BSA in PBS-T. Finally, the membranes were washed extensively and then developed with SuperSignal West Pico Chemiluminesence substrate (Pierce) and exposed to CL-XPosure Film (Pierce).
Antibodies. Mouse monoclonal α-Tau-5 which recognizes the central region of tau in a phosphorylation state independent manner was purchased from Lab Vision Corporation and used at a dilution of 1:500. Rabbit polyclonal […], and α-Tau [pS^422] recognize phosphorylated Thr-231, Ser-396, and Ser-422 respectively, and were purchased from Biosource International and used at a dilution of 1:1000. Mouse monoclonal α-O-GlcNAc (CTD110.6) which recognizes the O-GlcNAc monosaccharide modification was purchased from Covance and used at a dilution of 1:2500. Mouse monoclonal α-actin (clone AC-40) was purchased from Sigma and was used at a dilution of 1:1000.

Row | SMILES | brain tau phosphorylation at Ser214 and Ser404 [1] | brain tau phosphorylation at Thr231 and Ser396 [1] | brain tau phosphorylation at the Tau-1 epitope (Ser195, Ser198, Ser199, Ser202), Ser199, Ser262, Ser396, Ser422, and Thr231 [1] | brain tau phosphorylation at Ser-396, Thr-231, and Ser-422 ([2]; Western blot) | global levels of O-GlcNAc in brain ([2]; Western blot) | reduction of tau phosphorylation at Ser-396 ([2]; densitometry) | reduction of tau phosphorylation at Ser-422 ([2]; densitometry) | reduction of tau phosphorylation at Thr-231 ([2]; densitometry)
1 | CCCC1=N[C@@H]2[C@@H](O)[C@H](O)[C@@H](CO)O[C@@H]2S1 [NAG-Bt, (3aR,5R,6S,7R,7aR)-5-(hydroxymethyl)-2-propyl-5,6,7,7a-tetrahydro-3aH-pyrano[3,2-d]thiazole-6,7-diol] | increases phosphorylation | essentially blocks phosphorylation | decreases in phosphorylation |  |  |  |  | 
2 | CCNC1=N[C@@H]2[C@@H](O)[C@H](O)[C@@H](CO)O[C@@H]2S1 [NAG-AE, (3aR,5R,6S,7R,7aR)-2-(ethylamino)-5-(hydroxymethyl)-5,6,7,7a-tetrahydro-3aH-pyrano[3,2-d]thiazole-6,7-diol] |  |  |  | reduction; also recorded: decreases | increases | ~3.1 fold | ~1.8 fold | ~2.7 fold
